From US6844004B2, “Topical formulations of natamycin/pimaricin” (Board of Regents, The University of Texas System, priority 1997, dated 2005)
Values after ≈ are worked out from the molar mass of the structure shown.

Columns and labels:
[1] = surface in contact with AMB; cited from earlier work
[2] = system: tested strains of Fusarium; assay: Antifungal sensitivity (MIC); assay type: cell-based; conditions: all tested strains of Fusarium
Protocol: (§1) Methodology. The antifungal activity of Natamycin was compared with that of amphotericin B utilizing a previously described assay (Anaissie et al., 1991). Briefly, serial dilutions of Natamycin and AMB were mixed in RPMI growth medium with L-glutamine and MOPS-buffer, pH 7.0 (Sigma Chemical Co., St. Louis, Mo.). The different strains of Candida, Aspergillus and Fusarium spp. were then added to the dishes. After incubation at 35° C. for 48 to 72 hours the plates were evaluated for fungal proliferation. The used fungal strains were obtained from the ATCC or isolated from patients, primarily at the MD Anderson Cancer Center. The Natamycin concentrations in the used solutions were assayed with HPLC to assure the highest possible reproducibility of the drug concentrations.

[3] = system: A. flavus; assay: Antifungal sensitivity (MIC); assay type: cell-based; conditions: Aspergillus flavus; the tested A. flavus
Protocol: as §1

[4] = system: Aspergillus strains, except for A. flavus; assay: Antifungal sensitivity (MIC); assay type: cell-based; conditions: all Aspergillus strains except A. flavus
Protocol: as §1

[5] = system: tested strains of Candida spp.; assay: Antifungal sensitivity (MIC); assay type: cell-based; conditions: all tested strains of Candida spp.
Protocol: as §1

[6] = assay type: physicochemical
Protocol: Stability of the various Natamycin formulations. To study the physical and chemical stability of the various parenteral formulations, three sets of studies were performed: • (a) Natamycin was dissolved at a concentration of 100-300 mg/ml in HAc (“stock solution”) and incubated at 4° C., at 22° C. and at 40° C. The drug concentration was analyzed by HPLC in samples taken immediately after solubilization and after gradually increasing time intervals of up to 48 hours. • (b) The Natamycin-HAc stock solution was diluted with PEG/water (1:1:1, v:v:v, HAc:PEG:water), or PG/DMSO (1:1:1, v:v:v), or PG/DMSO/PEG (1:1:1:1, v:v:v:v), or aqueous lipid emulsion (1:10 and 1:100, v:v, HAc:Intralipid™), to yield Natamycin concentrations ranging from 1-50 mg/ml. • (c) The HAc-Natamycin mixture was diluted in NS or 5% dextrose to a drug concentration of 1 mg/ml. (d) The HAc-Natamycin mixture was blended with DMSO and Intralipid™, or directly in Intralipid™.
The various formulations were analyzed by HPLC immediately after mixing, then hourly for 8 hours, and then at gradually increasing time intervals up to several weeks, depending on the rate of degradation in the respective solvent system.
The temperature-dependent stability of solubilized Natamycin in the different solvent systems was studied as follows: The drug was dissolved in HAc at 100 mg/ml, and different aliquots were stored at 4° C., at 22° C., and at 40° C. Immediately after solubilization and at various intervals up to 48 hours later, aliquots from the different samples were analyzed by HPLC. The drug samples stored at 4° C. and at 22° C. degraded slower than those stored at higher temperatures: at 40° C. the Natamycin started degrading within 1 hour after the start of incubation, and at RT there was a loss of 5-10% in the first 4 hours.

[7] = physchem; assay type: physicochemical; conditions: 22 °C, organic solvent or mixture, thermodynamic from solid
Protocol: Natamycin solubility was determined in several individual vehicles (see Table I). Briefly, a known amount of the drug, as a powder (different lots of purified drug were obtained from Gist-Brocades N.V., Netherlands, and from Sigma Chemical Company, St Louis, Mo.), was equilibrated in the respective solvent at RT (22° C.) over 5 min to 4 hours. An aliquot was then removed and diluted in MeOH prior to HPLC at predetermined times. Based on the Natamycin solubility in these particular vehicles, the inventors attempted to enhance the solubility by mixing different solvents according to the principle of cosolvency (Spiegel and Noseworthy, 1963; Yalkowsky and Roseman, 1981). Several different solvent systems were evaluated relative to the above estimates of necessary solubility to arrive at a clinically relevant optimal stock formulation. […] The “final solvent” is preferably one of the commonly available ointment bases, such as petroleum jelly, cocoa butter, Aquaphor™, all of which are readily available and commonly used for topical administration, either for moisturizing purpose or for dissolving various chemically active compounds.
Solubility Studies. […] Samples of 1 ml were taken at various time intervals, and filtered through a 0.45 μm PTFE™ membrane filter fitted to a syringe assembly (Whatman Inc.), and after appropriate dilution, the Natamycin concentration was determined by HPLC.

Compound: C[C@@H]1[C@H](O)[C@@H](C)/C=C/C=C/C=C/C=C/C=C/C=C/C=C/[C@H](O[C@@H]2O[C@H](C)[C@@H](O)[C@H](N)[C@@H]2O)C[C@@H]2O[C@](O)(C[C@@H](O)C[C@@H](O)[C@H](O)CC[C@@H](O)C[C@@H](O)CC(=O)O[C@H]1C)C[C@H](O)[C@H]2C(=O)O [AMB, Amphotericin B]
- inflammation of the mucosal surface, share of treated subjects [1]: > 75%

Compound: C[C@@H]1C/C=C/C=C/C=C/C=C/[C@H](O[C@@H]2O[C@H](C)[C@@H](O)[C@H](N)[C@@H]2O)C[C@@H]2O[C@](O)(C[C@@H](O)C[C@H]3O[C@@H]3/C=C/C(=O)O1)C[C@H](O)[C@H]2C(=O)O [Natamycin, Pimaricin]
- MIC (sensitive in the range) [2]: 2 to 4 µg/mL
- MIC [3]: 16 µg/mL (≈ 24 µM)
- MIC [4]: 2 to 4 µg/mL (≈ 3 to 6.01 µM)
- MIC (sensitive in the range) [5]: 2 to 4 µg/mL
- loss of drug (degradation) ([6]; 100 mg/ml): 5-10%
- time to start of degradation ([6]; 100 mg/ml): ≤ 1 h
- time until degradation apparent ([6]; 100 mg/ml): 8 to 12 h
- time stable (by HPLC) ([6]; HAc and DMSO primary solvent, Intralipid, lyophilized, reconstituted to 10 mg/ml with distilled water, RT): more than 24 hours
- time stable ([6]; HAc-Natamycin stock diluted with 20% Intralipid to 10-50 mg/ml): more than 6 weeks
- solubility thermodynamic [7]: > 100 mg/mL
